Consider 25 molecules from patent US11667632B2, “2-(1H-indazol-3-yl)-3H-imidazo[4,5-C]pyridines and their anti-inflammatory uses thereof” (BioSplice Therapeutics, Inc., priority 2015, dated 2023).

The subject of one assay is IL-6. The assay is described as follows: Inhibition of IL-6 in LPS-stimulated human monocyte cells (THP-1), HTRF. The format is cell-based. To be noted: Homo sapiens; THP-1 cells, LPS 500 ng/mL, IL-6 by HTRF. Here is the method:
Human Monocyte Cell Culture: A human monocyte cell line (THP-1 cells; Catalog #TIB-202, ATCC, Manassas, Va.) was cultured in Roswell Park Memorial Institute (RPMI) 1640 Medium (Catalog #21870-100, Buffalo, N.Y.) with 1% L-glutamine, 1% HEPES, 1% sodium pyruvate, 2% sodium bicarbonate supplemented with 100 units/mL penicillin, 50 μg/mL streptomycin, 2-mercaptoethanol (0.05 mM) [basal medium] and 10% fetal bovine serum (Catalog #16140089, Life Technologies, Carlsbad, Calif.) at 37° C. and 5% CO2.
Compound Screening: THP-1 cells were cultured in basal media with 1% FBS for 24 hours before the start of the assay. Each compound of Formula (I) was dissolved in DMSO as a 10 mM stock and used to prepare compound source plates. Serial dilution (1:3, 10-point dose-response curves starting from 10 μM) and compound transfer was performed using the ECHO 550 (Labcyte, Sunnyvale, Calif.) into 384-well white low volume assay plates (Greiner Bio-One) with appropriate DMSO backfill for a final DMSO concentration of 0.1%. THP-1 cells were plated at 5000 cells/well in the 384-well plates and incubated at 37° C. for 2 h. 500 ng/mL of LPS was added after 2 hours and cells were incubated for another 22 hours at 37° C. Plates were spun in a centrifuge for 1 minute at 10,000 rpm and a mixture of anti-IL-6 XL665, and anti-IL-6 Cryptate diluted in reconstitution buffer (Cisbio Inc.) was added to each well. Following incubation for 3 hrs at room temperature, homogeneous time-resolved fluorescence (HTRF) was measured using the Envision (Perkin Elmer) at 665 nm and […]. The ratio of fluorescence at 665 nm to 620 nm was used as a readout for IL-6 quantification. All samples were processed in duplicate. Readings were normalized to DMSO treated cells and normalized activities were utilized for EC50 calculations using the dose-response log (inhibitor) vs. response -variable slope (four parameters) nonlinear regression feature available in GraphPad Prism 5.0 (or Dotmatics). For EC50 of >10 μM, the percent inhibition at 10 μM is provided.
For orientation: Time-resolved FRET reads energy transfer from a long-lived donor to a nearby acceptor.
As for `CCCC(=O)Nc1cncc(-c2ccc3[nH]nc(-c4nc5c(N6CCCCC6)cncc5[nH]4)c3c2)c1` [Compound 214], a half-maximal effect (EC50) was put at 59 nM.
Same read-out and setting: the value for `CCC(=O)Nc1cncc(-c2ccc3[nH]nc(-c4nc5c(-c6ccsc6)cncc5[nH]4)c3c2)c1` [Compound 289] was 16 nM; that for `O=C(Nc1cncc(-c2ccc3[nH]nc(-c4nc5c(-c6ccoc6)cncc5[nH]4)c3c2)c1)C1CC1` [Compound 330] was 5870 nM.
On the same count and under the same terms, then `CCC(=O)Nc1cncc(-c2ccc3[nH]nc(-c4nc5c(-c6cncc(F)c6)cncc5[nH]4)c3c2)c1` [Compound 20], with 15 nM; and `c1cncc(-c2ccc3[nH]nc(-c4nc5c(-c6ccoc6)cncc5[nH]4)c3c2)c1` [Compound 315], with 207 nM; and `CC(C)CC(=O)Nc1cncc(-c2ccc3[nH]nc(-c4nc5c(N6CCN(C)CC6)cncc5[nH]4)c3c2)c1` [Compound 1], with 451 nM.
Regarding `FC1(F)CCN(Cc2cncc(-c3ccc4[nH]nc(-c5nc6c(-c7cccnc7)cncc6[nH]5)c4c3)c2)C1` [Compound 339], it took 97 nM to reach a half-maximal effect (EC50).
Still for that read-out and setting: then `O=C(Nc1cncc(-c2ccc3[nH]nc(-c4nc5ccncc5[nH]4)c3c2)c1)c1ccccc1` [Compound 275], with more than 10000 nM.
In the case of `O=C(Nc1cncc(-c2ccc3[nH]nc(-c4nc5c(-c6ccncc6)cncc5[nH]4)c3c2)c1)C1CCCC1` [Compound 170], the EC50 was determined as 4690 nM.
The same measure, in the same setting: the value for `O=C(Nc1cncc(-c2ccc3[nH]nc(-c4nc5c(-c6ccc(F)cc6)cncc5[nH]4)c3c2)c1)C1CCC1` [Compound 111] was 50 nM; that for `c1cc(-c2cncc3[nH]c(-c4n[nH]c5ccc(-c6cncc(CNCC7CCCC7)c6)cc45)nc23)cs1` [Compound 311] was 216 nM.
The same measure, in the same setting: the value for `Fc1cccc(-c2cncc3[nH]c(-c4n[nH]c5ccc(-c6cncc(CN7CCC(F)(F)C7)c6)cc45)nc23)c1` [Compound 336] was 71 nM.
The same measure, in the same setting: the value for `O=C(Nc1cncc(-c2ccc3[nH]nc(-c4nc5c(N6CCCCC6)cncc5[nH]4)c3c2)c1)C1CCC1` [Compound 217] was 14 nM.
For `CC(C)Nc1cncc(-c2ccc3[nH]nc(-c4nc5c(-c6ccccc6F)cncc5[nH]4)c3c2)c1` [Compound 124], the EC50 came out at 47 nM.
Still for that read-out and setting: then `c1cncc(-c2ccc3[nH]nc(-c4nc5c(N6CCOCC6)cncc5[nH]4)c3c2)c1` [Compound 6], with 232 nM.
Same read-out and setting: the value for `CC(C)CC(=O)Nc1cncc(-c2ccc3[nH]nc(-c4nc5c(N6CCCCC6)cncc5[nH]4)c3c2)c1` [Compound 199] was 103 nM; that for `O=C(Cc1ccccc1)Nc1cncc(-c2ccc3[nH]nc(-c4nc5c(-c6cccc(F)c6)cncc5[nH]4)c3c2)c1` [Compound 86] was 42 nM.
Same read-out and setting: then `O=C(Cc1ccccc1)Nc1cncc(-c2ccc3[nH]nc(-c4nc5ccncc5[nH]4)c3c2)c1` [Compound 274], with more than 10000 nM; and `Fc1ccc(-c2cncc3[nH]c(-c4n[nH]c5ccc(-c6cncc(CN7CCCC7)c6)cc45)nc23)cc1` [Compound 107], with 75 nM; and `CC(C)C(=O)Nc1cncc(-c2ccc3[nH]nc(-c4nc5ccncc5[nH]4)c3c2)c1` [Compound 9], with 2260 nM.
Regarding `c1ncc(-c2ccc3[nH]nc(-c4nc5c(N6CCCCC6)cncc5[nH]4)c3c2)cc1CN1CCCC1` [Compound 211], a half-maximal response (EC50) required 311 nM.
Same read-out and setting: then `CN1CCN(c2cncc(-c3ccc4[nH]nc(-c5nc6ccncc6[nH]5)c4c3)c2)CC1` [Compound 7], with 2430 nM; and `Cc1ccncc1-c1ccc2[nH]nc(-c3nc4c(-c5ccncc5)cncc4[nH]3)c2c1` [Compound 154], with 188 nM.
Molecule `O=C(Nc1cncc(-c2ccc3[nH]nc(-c4nc5c(-c6ccoc6)cncc5[nH]4)c3c2)c1)C1CCCCC1` [Compound 333] had an EC50 of 103 nM.
Same read-out and setting: the value for `c1cc(-c2cncc3[nH]c(-c4n[nH]c5ccc(-c6cncc(CNCC7CCCC7)c6)cc45)nc23)ccn1` [Compound 173] was more than 10000 nM.

The same assay, now with this note: THP-1 cells, LPS-stimulated; dose-response starting from 10 μM.
`O=C(Nc1cncc(-c2ccc3[nH]nc(-c4nc5ccncc5[nH]4)c3c2)c1)c1ccccc1` [Compound 275]: the “percent inhibition of IL-6 at 10 μM” value is “(9.9%)”.
The same measure, in the same setting: then `O=C(Cc1ccccc1)Nc1cncc(-c2ccc3[nH]nc(-c4nc5ccncc5[nH]4)c3c2)c1` [Compound 274], with “(24.1%)”; and `c1cc(-c2cncc3[nH]c(-c4n[nH]c5ccc(-c6cncc(CNCC7CCCC7)c6)cc45)nc23)ccn1` [Compound 173], with “(11.7%)”.

Usually EC50 stands for the concentration that produces a half-maximal response.
